According to patent US5760000A (University Technologies International,Inc., priority 1994, dated 1998):
“Also recorded” adds a separate entry of the source. Where two headings read alike, the source gives them in different places. Non-standard residues stand in square brackets, D forms with d. Residues, ends and D or L forms follow the SMILES beside them. pGlu = O=C1CC[C@@H](C(=O)O)N1

What was measured:
[1] = target: GnRH receptor (HepG2 membrane preparation); test: GnRH in vitro binding to HepG2 membrane preparation (radioreceptor assay); design: species or system human; details: for Kd: 95% confidence interval in parentheses; for Displacement / competitive inhibition of labeled [D-Lys6]-GnRH binding to HepG2 membrane preparation: unlabeled non-GnRH peptides, FIG. 2B
Protocol: (§1) Cells were grown to confluence as previously described and harvested from the flasks by using a rubber policeman. The cells were washed in normal assay buffer (([…] Tris[hydroxymethyl] aminomethane[Tris]-HCl), containing 1 mM dithiothreitol and 0.5% BSA [fraction-V] (pH 7.6)) and precipitated by centrifugation at 500g for 5 minutes at 4° C.
(§2) The cleaned cells were homogenized in 50 ml of freshly prepared ice cold 25 mM sucrose in assay buffer containing 1 mM Phenylmethanesulphonyl fluoride and 5 mM Ethylenediaminetetraacetic acid, using a glass TEFLON (polytetra-fluoroethylene) homogenizer, followed by centrifugation at 100 ×g for 5 minutes (4° C.). The supernatant was further centrifuged at 17,000×g for 30 minutes at 4° C., and the pellet (crude membrane preparation) washed briefly and resuspended in the assay buffer (approximately 40-50 μg membrane protein or approximately 1 x 10^6 cell equivalent per 100 μl).
(§3) For protein determination, aliquots of crude membrane preparations were washed twice with double distilled water by centrifugation (25,000 ×g) and assayed for protein content, using BSA as the standard. The binding assay was carried out at 4° C.
(§4) The displacement curves were fitted for both single and two classes of binding sites by computer calculated lines, as described.
(§5) The potency of various GnRH-related peptides in terms of binding (equilibrium dissociation constant; kd) and growth suppression activity in the human hepatocarcinoma derived cell line HepG2 was studied. […] Data analysis was performed as described.
(§6) Homologous displacement of GnRH-related peptides in membrane homogenates prepared from HepG2 cells and non-cancerous postmortem human liver tissue was studied. Values (mean ± SEM) represent specific binding [B/T, bound over total, in %] determined by subtraction of non-saturable binding in the presence of excess peptides (10^-5 M). Results were obtained from 5 to 7 separated experiments, each carried out in triplicate. The binding data were analyzed by computerized Scatchard analysis (LIGAND) according to Munson and Rodbard.

[2] = target: GnRH binding sites (normal rat liver); test: GnRH in vitro binding to normal rat liver membrane preparation; details: 95% confidence interval in parentheses, read-out: Receptor Binding Activity (Kd, nM) Normal Rat Liver
Protocol: as §1, §2
(§7) A similar protocol was used to prepare the membrane from fresh rat and frozen human postmortem liver. In all experiments the final membrane preparation was used in the radioreceptor assay within 45 minutes.
as §3, §4

HepG2 cells = test: HepG2 cell proliferation (cell counting); assay type: cell-based; details: for Effect on HepG2 cell proliferation: single administration at 10^-7 M, six days in culture
Protocol: HepG2 or HuH-7 cells were maintained in 75-cm^2 flasks at 37° C. under a humidified atmosphere of 5% CO2 in modified Minimum Essential Medium (Gibco-BRL) supplemented with 10% fetal bovine serum, 200mM 1-Glutamine (1%), Penicillin (1000 IU/ml), streptomycin (100 μg/ml) and sodium bicarbonate (0.15%). Cells grown to confluence were harvested following mild trypsinization and wash (twice by slow centrifugation; 400 g for 10 minutes) in normal culture medium.
Approximately 50,000 cells in 1.0 ml culture media were plated in 24 deep well plates (Flacon). This time was considered day -1. Cells were allowed to grow for one day. The growing cells were then treated with various hormones (at day 0) prepared aseptically in culture media immediately prior to addition. The final volume was maintained at 1 ml. The plates were then incubated at 37° C. for a period of 4 to 6 days, as described above.
Cells in each well were harvested by removal of culture media and incubation with 0.5 ml 0.25% trypsin and 1.75 mM EDTA for 30 minutes at 37° C. Cells were then transferred into 1.5 ml microfuge tubes and centrifuged at 100g for 10 minutes. The supernatant was removed and the pellet was resuspended in a final volume of 200 μl of culture media containing 10% trypan blue.
Cells were then counted using a hemocytometer. The average cell mortality was less than 5.0% and was not different among different treatment groups. Each value represents the mean and standard error of several experiments (n>3), each carried out in quadruplicate incubations at each time point and hormone concentration.
as §5
The effect of GnRH-related peptides on the proliferation of the human hepatoma derived cell line HepG2 was studied. Values (mean ± SEM) represent the percent change with respect to initial cell number at day 0 over a period of six days in culture.
The dose response curves were analyzed by a computerized, four parameter curve fitting program (ALLFIT) as described. The result of time-related response on cell proliferation was analyzed using a two-way ANOVA with multiple comparison means of using computerized statistical package (SYSTAT).

[3] = tested on: GnRH binding sites (normal human liver); test: GnRH in vitro binding to non-cancerous postmortem human liver membrane preparation; details: for Displacement / competitive inhibition of labeled [D-Lys6]-GnRH binding to non-cancerous human liver membrane preparation: unlabeled non-GnRH peptides, FIG. 2D; for Kd: 95% confidence interval in parentheses, read-out: Receptor Binding Activity (Kd, nM) Normal Human Liver
Protocol: as §1, §2, §7, §3, §4, §6

[4] = target: T1, normal pituitary cell GnRH receptors (Rattus norvegicus, UniProt P30969); test: GnRH binding, normal rat pituitary; details: 95% confidence interval in parentheses, read-out: Receptor Binding Activity (Kd, nM) Normal Rat
T1 construct: normal pituitary cell GnRH receptors; from tissue; host or cells: normal rat pituitary
T1 sequence (P30969 1-327): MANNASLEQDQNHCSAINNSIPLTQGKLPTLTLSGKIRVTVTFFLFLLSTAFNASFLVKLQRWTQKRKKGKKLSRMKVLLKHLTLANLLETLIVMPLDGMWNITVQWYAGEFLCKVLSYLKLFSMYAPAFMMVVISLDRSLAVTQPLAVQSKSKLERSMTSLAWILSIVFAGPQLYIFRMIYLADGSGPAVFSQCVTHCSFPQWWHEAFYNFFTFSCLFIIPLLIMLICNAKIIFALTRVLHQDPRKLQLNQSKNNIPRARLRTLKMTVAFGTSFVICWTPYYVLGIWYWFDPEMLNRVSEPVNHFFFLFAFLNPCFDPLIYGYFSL
Protocol: as §4
Data analysis was performed as described.

mammalian pituitary = details: reference [11]; cited from earlier work
[5] = Labeled ligand 125I-[D-Lys6]-GnRH, 4° C.
[6] = Labeled ligand 125I-[D-Lys6]-GnRH
[7] = Labeled ligand 125I-[D-Arg6]-sGnRH-A

Row | Kd [1, 5] [nM] | Kd [2, 6] [nM] | Displacement / competitive inhibition of labeled [D-Lys6]-GnRH binding to non-cancerous human liver membrane preparation [3] | Kd [4, 6] [nM] | Compound | Effect on HepG2 cell proliferation (HepG2 cells) | Displacement / competitive inhibition of labeled [D-Lys6]-GnRH binding to HepG2 membrane preparation [1] | Suppression of HepG2 growth ED50 (HepG2 cells) [µM] | other results
1 | 9.17 | 384 |  |  | CC(C)C[C@H](NC(=O)CNC(=O)[C@H](Cc1ccc(O)cc1)NC(=O)[C@H](CO)NC(=O)[C@H](Cc1c[nH]c2ccccc12)NC(=O)[C@H](Cc1c[nH]cn1)NC(=O)[C@@H]1CCC(=O)N1)C(=O)N[C@@H](CCCNC(=N)N)C(=O)N1CCC[C@H]1C(=O)NCC(N)=O [GnRH, reference compound] | suppressed |  |  | 
2 |  |  | did not displace |  | NC(=O)[C@@H]1CCCN1C(=O)[C@H](Cc1cnc[nH]1)NC(=O)[C@@H]1CCC(=O)N1 [TRH, Thyrotropin releasing hormone] |  | did not show competitive inhibition |  | Displacement / competitive inhibition of labeled [D-Lys6]-GnRH binding to HepG2 membrane preparation ([1]; listed as Thyrotropin releasing hormone (TRH)): did not displace
3 |  |  |  |  | CCNC(=O)[C@@H]1CCCN1C(=O)[C@H](CC(C)C)NC(=O)[C@H](Cc1c[nH]c2ccccc12)NC(=O)[C@@H](CCCNC(=N)N)NC(=O)[C@H](Cc1ccc(O)cc1)NC(=O)[C@H](CO)NC(=O)[C@H](Cc1c[nH]c2ccccc12)NC(=O)[C@H](Cc1c[nH]cn1)NC(=O)[C@@H]1CCC(=O)N1 [[D-Arg^6]-sGnRH-A, pGlu-His-Trp-Ser-Tyr-DArg-Trp-Leu-Pro-N-ethylamide] ([pGlu]HWSY[dR]WLP-NHEt) |  |  |  | Kd [1, 7]: 7.09 nM; Kd [3, 7]: 3850 nM; Kd [2, 7]: 833 nM; Kd [4, 7]: 0.334 nM
4 | 17.9 | 8330 |  | 140 | CC(C)C[C@H](NC(=O)CNC(=O)[C@H](Cc1c[nH]cn1)NC(=O)[C@H](CO)NC(=O)[C@H](Cc1c[nH]c2ccccc12)NC(=O)[C@H](Cc1c[nH]cn1)NC(=O)[C@@H]1CCC(=O)N1)C(=O)N[C@@H](CC(N)=O)C(=O)N1CCC[C@H]1C(=O)NCC(N)=O [cfGnRH] ([pGlu]HWSHGLNPG-NH2) | suppressed |  | 0.00229 | 
5 | 66.6 | 8330 |  | 2 | CC(C)C[C@H](NC(=O)[C@H](CO)NC(=O)[C@H](Cc1ccc(O)cc1)NC(=O)[C@H](Cc1c[nH]cn1)NC(=O)[C@@H]1CCC(=O)N1)C(=O)N[C@@H](CCC(=O)O)C(=O)N[C@@H](Cc1c[nH]c2ccccc12)C(=O)N[C@@H](CCCCN)C(=O)N1CCC[C@H]1C(=O)NCC(N)=O [lGnRH] ([pGlu]HYSLEWKPG-NH2) | suppressed |  | 0.0015 | Kd [3, 6]: 6660 nM; Gonadotropin release activity in rat and sheep pituitary (mammalian pituitary): little; Potency in releasing gonadotropin from mammalian pituitary compared to mammalian based GnRH analogs (mammalian pituitary): significantly lower potency
6 |  | 1560 |  | 179 | CC(C)C[C@H](NC(=O)[C@H](Cc1c[nH]c2ccccc12)NC(=O)CNC(=O)[C@H](Cc1ccc(O)cc1)NC(=O)[C@H](CO)NC(=O)[C@H](Cc1c[nH]c2ccccc12)NC(=O)[C@H](Cc1c[nH]cn1)NC(=O)[C@@H]1CCC(=O)N1)C(=O)N1CCC[C@H]1C(=O)NCC(N)=O [sGnRH] ([pGlu]HWSYGWLPG-NH2) | suppressed |  | 0.00755 | Kd [3, 6]: 7140 nM; Potency in releasing gonadotropin from mammalian pituitary compared to mammalian based GnRH analogs (mammalian pituitary): significantly lower potency
7 |  |  | did not displace |  | α-melanocyte stimulating hormone [α-MSH, reference compound] | lack of effect; also recorded: did not | did not displace; also recorded: did not show competitive inhibition |  | 

Row | Compound | Kd [1, 5] [nM] | Kd [2, 6] [nM] | Displacement / competitive inhibition of labeled [D-Lys6]-GnRH binding to non-cancerous human liver membrane preparation [3] | Kd [4, 6] [nM] | Effect on HepG2 cell proliferation (HepG2 cells) | Displacement / competitive inhibition of labeled [D-Lys6]-GnRH binding to HepG2 membrane preparation [1] | Suppression of HepG2 growth ED50 (HepG2 cells) [µM] | other results
8 | Met Enkephalin [Met-Enkephalin] |  |  | did not displace |  |  | did not show competitive inhibition |  | Displacement / competitive inhibition of labeled [D-Lys6]-GnRH binding to HepG2 membrane preparation ([1]; listed as Met Enkephalin): did not displace
